Data: PubChem BioAssay (NCI)
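Cultured in 96-well plates, cells were exposed to test compound for 48 hours across five concentrations. GI50 = concentration required for 50% inhibition of growth. Definition used: TGI = concentration required for complete inhibition of growth.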

How the values were obtained:
Test in all cases: NCI tumour cell line growth inhibition, 48 h
[1] = tested on: NCI-H522 lung
[2] = tested on: HOP-92 NSCLC
[3] = tested on: COLO 205 colon
[4] = tested on: BT-549 breast
[5] = tested on: SN12C renal
[6] = tested on: U251 CNS
[7] = tested on: SF-295 CNS
[8] = tested on: UO-31 renal
[9] = tested on: UACC-62 melanoma
[10] = tested on: HT29 colon
[11] = tested on: NCI-H23 lung
[12] = tested on: LOX IMVI melanoma
[13] = tested on: SF-539 CNS
[14] = tested on: MALME-3M melanoma
[15] = tested on: MDA-MB-231 breast
[16] = tested on: ACHN renal
[17] = tested on: HL-60(TB) leukemia
[18] = tested on: NCI-H460 lung
[19] = tested on: NCI/ADR-RES ovarian
[20] = tested on: UACC-257 melanoma
[21] = tested on: CCRF-CEM leukemia
[22] = tested on: HS 578T breast
[23] = tested on: NCI-H226 lung
[24] = tested on: MOLT-4 leukemia
[25] = tested on: RPMI-8226 leukemia
[26] = tested on: SK-MEL-5 melanoma
[27] = tested on: T-47D breast
[28] = tested on: DU-145 prostate
[29] = tested on: PC-3 prostate
[30] = tested on: SNB-19 CNS
[31] = tested on: OVCAR-8 ovarian
[32] = tested on: RXF 393 renal
[33] = tested on: IGROV1 ovarian
[34] = tested on: SF-268 CNS
[35] = tested on: MDA-MB-435
[36] = tested on: OVCAR-4 ovarian
[37] = tested on: CAKI-1 renal
[38] = tested on: HCT-15 colon
[39] = tested on: TK-10 renal
[40] = tested on: SR leukemia
[41] = tested on: SW-620 colon
[42] = tested on: SK-OV-3 ovarian
[43] = tested on: KM12 colon
[44] = tested on: A498 renal
[45] = tested on: HCC-2998 colon
[46] = tested on: HCT-116 colon
[47] = tested on: HOP-62 NSCLC
[48] = tested on: K-562 leukemia
[49] = tested on: OVCAR-3 ovarian
[50] = tested on: SK-MEL-2 melanoma
[51] = tested on: SK-MEL-28 melanoma
[52] = tested on: EKVX NSCLC
[53] = tested on: 786-0 renal
[54] = tested on: MCF7 breast
[55] = tested on: SNB-75 CNS
[56] = tested on: OVCAR-5 ovarian
[57] = tested on: A549 NSCLC
[58] = tested on: M14 melanoma

C=C(C(=O)OC1C(CO)OC(OCC2CC[C@@H]3C[C@]4(OC(=O)C3=C)C(C)=CC(=O)C24)C(O)C1O)[C@@H]1CCC(CO)C2C(=O)C=C(C)[C@@]2(O)C1 (some centres undefined)
TGI [1]: 0.783 µM
TGI [2]: 6.66 µM
TGI [3]: 1.13 µM
TGI [4]: 3.52 µM
TGI [5]: 5.42 µM
TGI [6]: 16 µM
TGI [7]: 35 µM
TGI [8]: 7.98 µM
TGI [9]: 3.35 µM
TGI [10]: 6.37 µM
TGI [11]: 5.12 µM
TGI [12]: 6.32 µM
TGI [13]: 10.5 µM
TGI [14]: 3.44 µM
TGI [15]: 3.26 µM
TGI [16]: 12.3 µM
TGI [17]: 3.76 µM
TGI [18]: 13.7 µM
TGI [19]: 11.2 µM
TGI [20]: 5.17 µM
TGI [21]: 1.3 µM
TGI [22]: > 53.1 µM
TGI [23]: 20.2 µM
TGI [24]: 8.41 µM
TGI [25]: 9.12 µM
TGI [26]: 2.75 µM
TGI [27]: 24.3 µM
TGI [28]: 17.6 µM
TGI [29]: 6.63 µM
TGI [30]: 31.8 µM
TGI [31]: 14.8 µM
TGI [32]: 4.14 µM
TGI [33]: 12.6 µM
TGI [34]: 16.1 µM
TGI [35]: 5.04 µM
TGI [36]: 20.1 µM
TGI [37]: 7.93 µM
TGI [38]: 3.1 µM
TGI [39]: 13.1 µM
TGI [40]: 11.6 µM
TGI [41]: 13.3 µM
TGI [42]: 55.9 µM
TGI [43]: 8.31 µM
TGI [44]: 9.86 µM
TGI [45]: 4.29 µM
TGI [46]: 3.07 µM
TGI [47]: 24.9 µM
TGI [48]: 31.1 µM
TGI [49]: 14.7 µM
TGI [50]: 8.29 µM
TGI [51]: 14.8 µM
TGI [52]: 8.61 µM
TGI [53]: 7.85 µM
TGI [54]: 12.8 µM
TGI [55]: 29 µM
TGI [56]: 7.15 µM
TGI [57]: 18 µM
TGI [58]: 4.81 µM

COc1ccc(C2C(C#N)=C(N)Oc3c2sc2c(C)cccc32)cc1 (centres undefined)
GI50 [1]: 0.369 µM
TGI [1]: 6.01 µM
GI50 [2]: 1.13 µM
TGI [2]: 11.1 µM
GI50 [3]: 0.933 µM
TGI [3]: 8.68 µM
GI50 [4]: 0.956 µM
TGI [4]: 7.83 µM
GI50 [5]: 0.578 µM
TGI [5]: 11.3 µM
GI50 [6]: 0.489 µM
TGI [6]: 16 µM
GI50 [7]: 0.293 µM
TGI [7]: 2.4 µM
GI50 [8]: 0.34 µM
TGI [8]: 13.5 µM
GI50 [9]: 0.375 µM
TGI [9]: 11.9 µM
GI50 [10]: 0.816 µM
TGI [10]: 12.7 µM
GI50 [11]: 0.474 µM
TGI [11]: 12.8 µM
GI50 [12]: 0.592 µM
TGI [12]: 10.8 µM
GI50 [13]: 0.297 µM
TGI [13]: 1.24 µM
GI50 [14]: 0.431 µM
TGI [14]: 21 µM
GI50 [15]: 1.22 µM
TGI [15]: 10.6 µM
GI50 [16]: 0.757 µM
TGI [16]: 14.7 µM
GI50 [17]: 0.23 µM
TGI [17]: 1.06 µM
GI50 [18]: 0.384 µM
TGI [18]: 10.6 µM
GI50 [19]: 0.332 µM
TGI [19]: 5.75 µM
GI50 [20]: 14.3 µM
TGI [20]: 42.1 µM
GI50 [21]: 0.341 µM
TGI [21]: > 64.8 µM
GI50 [22]: 0.3 µM
TGI [22]: 2.28 µM
GI50 [23]: 0.59 µM
TGI [23]: 15.8 µM
GI50 [24]: 0.524 µM
TGI [24]: 9.43 µM
GI50 [25]: 0.384 µM
TGI [25]: 5.53 µM
GI50 [26]: 0.427 µM
TGI [26]: 13.2 µM
GI50 [27]: 0.552 µM
TGI [27]: 43.7 µM
GI50 [28]: 0.596 µM
TGI [28]: 18.6 µM
GI50 [29]: 0.346 µM
TGI [29]: 13 µM
GI50 [30]: 0.52 µM
TGI [30]: 15.2 µM
GI50 [31]: 0.547 µM
TGI [31]: 17.4 µM
GI50 [32]: 0.234 µM
TGI [32]: 0.628 µM
GI50 [33]: 0.449 µM
TGI [33]: 14.5 µM
GI50 [34]: 1.2 µM
TGI [34]: 21.6 µM
GI50 [35]: 0.188 µM
TGI [35]: 0.441 µM
GI50 [36]: 2.24 µM
TGI [36]: 22.5 µM
GI50 [37]: 0.381 µM
TGI [37]: 16.7 µM
GI50 [38]: 0.408 µM
TGI [38]: 7.32 µM
GI50 [39]: 9.49 µM
TGI [39]: 34.2 µM
GI50 [40]: 0.215 µM
TGI [40]: 15 µM
GI50 [41]: 0.441 µM
TGI [41]: 16.2 µM
GI50 [42]: 0.613 µM
TGI [42]: 41.7 µM
GI50 [43]: 0.46 µM
TGI [43]: 14.5 µM
GI50 [44]: 0.199 µM
TGI [44]: 0.772 µM
GI50 [45]: 1.03 µM
TGI [45]: 7.39 µM
GI50 [46]: 0.362 µM
TGI [46]: 6.96 µM
GI50 [47]: 0.544 µM
TGI [47]: 20.8 µM
GI50 [48]: 0.119 µM
TGI [48]: > 100 µM
GI50 [49]: 0.414 µM
TGI [49]: 12.8 µM
GI50 [50]: 3.33 µM
TGI [50]: 26.5 µM
GI50 [51]: 3.83 µM
TGI [51]: 21.7 µM
GI50 [52]: 0.677 µM
TGI [52]: 21.3 µM
GI50 [53]: 0.621 µM
TGI [53]: 14.6 µM
GI50 [54]: 0.322 µM
TGI [54]: 12.2 µM
GI50 [55]: 0.221 µM
TGI [55]: 0.709 µM
GI50 [56]: 0.636 µM
TGI [56]: 14.2 µM
GI50 [57]: 0.724 µM
TGI [57]: 21.6 µM
GI50 [58]: 0.304 µM
TGI [58]: 13.4 µM
